According to patent US12637499B2, “Adrenomedullin analog, method for producing the same, and pharmaceutical use thereof” (priority 2020, dated 2026):
Where a SMILES comes first, the peptide text is derived from it. Bridges are numbered along the chain shown (N, C = ends).

Columns and labels:
[1] = target: T1, AM type 1 receptor (AMI receptor) (Homo sapiens, UniProt O60895+Q16602); experiment: Intracellular cAMP production in HEK293 cells stably expressing AM type 1 receptor (Experiments V and IX); assay type: cell-based; details: for intracellular cAMP concentration-increasing activity: Experiment IX, addition at 10^−9 M or 10^−8 M, HEK293 cells
T1 construct: expressed in transfected cells; medium contains hygromycin B and Geneticin
T1 sequence (Q16602 23-461): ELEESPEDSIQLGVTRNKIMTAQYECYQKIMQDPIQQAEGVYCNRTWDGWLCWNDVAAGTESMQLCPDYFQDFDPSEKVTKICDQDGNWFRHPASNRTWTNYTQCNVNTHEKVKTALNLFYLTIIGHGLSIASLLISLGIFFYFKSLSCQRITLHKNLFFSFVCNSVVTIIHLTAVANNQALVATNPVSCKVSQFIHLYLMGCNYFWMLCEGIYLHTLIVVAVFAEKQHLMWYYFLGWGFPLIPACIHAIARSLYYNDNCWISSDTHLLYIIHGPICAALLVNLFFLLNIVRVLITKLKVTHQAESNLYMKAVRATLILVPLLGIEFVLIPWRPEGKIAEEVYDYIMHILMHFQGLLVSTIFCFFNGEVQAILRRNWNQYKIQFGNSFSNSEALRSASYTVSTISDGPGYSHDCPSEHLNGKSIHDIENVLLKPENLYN
T1 sequence (O60895 43-175): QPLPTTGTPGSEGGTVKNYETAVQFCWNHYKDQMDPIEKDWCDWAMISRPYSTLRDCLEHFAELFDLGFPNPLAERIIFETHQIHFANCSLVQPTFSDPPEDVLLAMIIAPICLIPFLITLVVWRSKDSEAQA
Excerpt: The adrenomedullin activity exerted by AM, shown above with examples, will be exerted via increased concentration of intracellular cAMP in normal cases. Thus, the increased concentration of intracellular cAMP can be considered as an index of the adrenomedullin activity of the compound according to the aspect. In each aspect of the invention, the effect of increasing concentration of intracellular cAMP can be evaluated, for example, by adding a target compound to a cultured cell line (HEK293 cell line) caused to stably express an AM type 1 receptor (AMI receptor) and measuring the amount of intracellular cAMP produced.
The physiological effect of AM is known to be exerted via increase in the concentration of intracellular cAMP (see Kitamura K et al., Biochem Biophys Res Commun, 30 Apr. 1993, Volume 192, Issue 2, pp. 553-560). Accordingly, each AM analog was added to a cultured cell line (HEK293 cell line) caused to stably express an AM type 1 receptor (AMI receptor), and the amount of intracellular cAMP produced was measured. HEK293 cells were cultured in Dulbecco's modified Eagle's medium (with 10% fetal bovine serum, 100 U/ml penicillin G, […] streptomycin, 0.25 mg/ml amphotericin B, […] hygromycin B, and […] Geneticin) in a fibronectin-coated 24-well plate (Thermo Fisher Scientific) (under 37° C., humidified, 5% CO2 conditions). After culturing for 3 days, 90%-confluent cells with accumulation of intracellular cAMP stimulated were subjected to experiment. The medium was exchanged with Hanks's balanced salt solution containing 20 mM 4-(2-hydroxyethyl)-1-piperazineethanesulfonic acid and 0.1% bovine serum albumin, AM or an AM analog was added to the cells in the presence of 0.5 mM isobutylmethylxanthine (IBMX), and the cells were incubated at 37° C. for 15 minutes. The reaction was terminated by addition of cell lysis buffer. Then, the amount of intracellular cAMP produced in the HEK293 cells of each well was measured using an ELISA kit for cAMP measurement (GE Healthcare Japan Corp., #RPN2251). […] In the figure, the abscissa represents logarithms of concentration of AM or an AM analog added (M), and the ordinate represents amounts of intracellular cAMP produced in HEK293 cells stably expressing an AMI receptor (fmol/well).
In the figure, the abscissa represents logarithms of concentration of AM or an AM analog added (M), and the ordinate represents amounts of intracellular cAMP produced in HEK293 cells stably expressing an AMI receptor (fmol/ml).

in vivo = details: for detection in rat plasma after subcutaneous administration: 50 nmol/kg subcutaneous, Experiment X; for Cmax: male, Wistar, rat, in vivo, sc, 50 nmol/kg
Experimental: Seven-week-old male Wistar rats were prepared, and grown with normal feeds. To determine plasma AM concentrations, 50 nmol/kg of AM or an AM analog was subcutaneously administered. A peripheral blood sample was collected from the tail vein into a Kantan tube® (containing heparin Na, Eiken Chemical Co., Ltd., Tochigi, Japan) at predetermined times (0, 15, 30, 60, and 120 minutes after administration). The tube was centrifuged at 2,000×g. Plasma was collected from the tube, and transferred into a test tube (containing 21 μg of aprotinin and 0.3 mg of EDTA-2Na) and stored. […] In the figure, the abscissa represents elapsed time after subcutaneous administration (hr), and the ordinate represents concentration in plasma of AM or an AM analog (pM). In addition, maximum concentrations in blood (Cmax) of AM or the AM analogs in rat plasma after subcutaneous administration were calculated.

in vitro = details: for stability in reaction mixture with human serum: Experiment VIII, 10^−7 M, 37° C., 4 hours after the beginning of reaction
Experimental: The stabilities of the AM analog peptides in serum were evaluated with the same procedure as in Experiment I except the following procedure. […] A reaction mixture containing 4 μL of phosphate buffer, 20 μL of human serum (Sigma-Aldrich Co. LLC, USA), and 14 μL of water was prepared. To the reaction mixture, 2 μL of AM or an AM analog peptide (2×10^−6 M, final concentration: 10^−7 M) was added, and reaction was initiated at 37° C. The reaction was terminated by addition of 160 μL of ELISA buffer to the reaction mixture 0, 1, or 4 hours after the beginning of reaction. […] In the figure, the abscissa represents reaction time (hr), and the ordinate represents concentration in serum of AM or an AM analog (%) represented as relative values to concentration of AM or an AM analog at the beginning of reaction (i.e., 0 hours after the beginning of reaction).

## CC[C@H](C)[C@H](NC(=O)[C@H](CCC(N)=O)NC(=O)[C@H](Cc1c[nH]cn1)NC(=O)[C@H](C)NC(=O)[C@H](CC(C)C)NC(=O)[C@H](CCCCN)NC(=O)[C@H](CCC(N)=O)NC(=O)[C@@H](NC(=O)[C@@H](NC(=O)[C@@H]1CSSC[C@H](NC(=O)CNC(=O)[C@H](Cc2ccccc2)NC(=O)[C@@H](N)CO)C(=O)N[C@@H](CCCNC(=N)N)C(=O)N[C@@H](Cc2ccccc2)C(=O)NCC(=O)N[C@@H]([C@@H](C)O)C(=O)N1)[C@@H](C)O)C(C)C)C(=O)N[C@@H](Cc1ccc(O)cc1)C(=O)N[C@@H](CCC(N)=O)C(=O)N[C@@H](Cc1ccccc1)C(=O)N[C@H](C(=O)N[C@@H](CC(=O)O)C(=O)N[C@@H](CCCCN)C(=O)N[C@@H](CC(=O)O)C(=O)N[C@@H](CCCCN)C(=O)N[C@@H](CC(=O)O)C(=O)N[C@@H](CC(N)=O)C(=O)N[C@H](C(=O)N[C@@H](C)C(=O)N1CCC[C@H]1C(=O)N[C@@H](Cc1ccccc1)C(=O)N[C@@H](CO)C(=O)N[C@@H](CCCCN)C(=O)N[C@H](C(=O)N[C@@H](CO)C(=O)N1CCC[C@H]1C(=O)N[C@@H](CCC(N)=O)C(=O)NCC(=O)N[C@@H](Cc1ccc(O)cc1)C(N)=O)[C@@H](C)CC)C(C)C)[C@@H](C)O [[Phe-44]hAM(13-52), SFGCRFGTCTVQKLAHQIYQFTDKDKDNVAPFSKISPQGY-CONH2] (H-SFGCRFGTCTVQKLAHQIYQFTDKDKDNVAPFSKISPQGY-NH2; disulfide 4-9)
[1]
  EC50: 5.13 nM
  intracellular cAMP concentration-increasing activity: approximately equivalent to that of hAM(1-52) or hAM(13-52)
In vivo
  detection in rat plasma after subcutaneous administration: detected in rat plasma 15 minutes after administration
  Cmax: 0.323 nM
In vitro
  stability in reaction mixture with human serum: stable

## CC[C@H](C)[C@H](NC(=O)[C@H](CCC(N)=O)NC(=O)[C@H](Cc1c[nH]cn1)NC(=O)[C@H](C)NC(=O)[C@H](CC(C)C)NC(=O)[C@H](CCCCN)NC(=O)[C@H](CCC(N)=O)NC(=O)[C@@H](NC(=O)[C@@H](NC(=O)[C@@H]1CSSC[C@H](NC(=O)CNC(=O)[C@H](Cc2ccccc2)NC(=O)[C@@H](N)CO)C(=O)N[C@@H](CCCNC(=N)N)C(=O)N[C@@H](Cc2ccccc2)C(=O)NCC(=O)N[C@@H]([C@@H](C)O)C(=O)N1)[C@@H](C)O)C(C)C)C(=O)N[C@@H](Cc1ccc(O)cc1)C(=O)N[C@@H](CCC(N)=O)C(=O)N[C@@H](Cc1ccccc1)C(=O)N[C@H](C(=O)N[C@@H](CC(=O)O)C(=O)N[C@@H](CCCCN)C(=O)N[C@@H](CC(=O)O)C(=O)N[C@@H](CCCCN)C(=O)N[C@@H](CC(=O)O)C(=O)N[C@@H](CC(N)=O)C(=O)N[C@H](C(=O)N[C@@H](C)C(=O)N1CCC[C@H]1C(=O)NCC(=O)N[C@@H](CO)C(=O)N[C@@H](CCCCN)C(=O)N[C@H](C(=O)N[C@@H](CO)C(=O)N1CCC[C@H]1C(=O)N[C@@H](CCC(N)=O)C(=O)NCC(=O)N[C@@H](Cc1ccc(O)cc1)C(N)=O)[C@@H](C)CC)C(C)C)[C@@H](C)O [[Gly-44]hAM(13-52), SFGCRFGTCTVQKLAHQIYQFTDKDKDNVAPGSKISPQGY-CONH2] (H-SFGCRFGTCTVQKLAHQIYQFTDKDKDNVAPGSKISPQGY-NH2; disulfide 4-9)
[1]
  EC50: 11 nM
  intracellular cAMP concentration-increasing activity: approximately equivalent to that of hAM(1-52) or hAM(13-52)
In vivo
  detection in rat plasma after subcutaneous administration: detected in rat plasma 15 minutes after administration
  Cmax: 0.76 nM
In vitro
  stability in reaction mixture with human serum: stable

## CC[C@H](C)[C@H](NC(=O)[C@H](CCC(N)=O)NC(=O)[C@H](Cc1c[nH]cn1)NC(=O)[C@H](C)NC(=O)[C@H](CC(C)C)NC(=O)[C@H](CCCCN)NC(=O)[C@H](CCC(N)=O)NC(=O)[C@@H](NC(=O)[C@@H](NC(=O)[C@@H]1CSSC[C@H](NC(=O)CNC(=O)[C@H](Cc2ccccc2)NC(=O)[C@@H](N)CO)C(=O)N[C@@H](CCCNC(=N)N)C(=O)N[C@@H](Cc2ccccc2)C(=O)NCC(=O)N[C@@H]([C@@H](C)O)C(=O)N1)[C@@H](C)O)C(C)C)C(=O)N[C@@H](Cc1ccc(O)cc1)C(=O)N[C@@H](CCC(N)=O)C(=O)N[C@@H](Cc1ccccc1)C(=O)N[C@H](C(=O)N[C@@H](CC(=O)O)C(=O)N[C@@H](CCCCN)C(=O)N[C@@H](CC(=O)O)C(=O)N[C@@H](CCCCN)C(=O)N[C@@H](CC(=O)O)C(=O)N[C@@H](CC(N)=O)C(=O)N[C@H](C(=O)N[C@@H](C)C(=O)N1CCC[C@H]1C(=O)N[C@@H](CC(=O)O)C(=O)N[C@@H](CO)C(=O)N[C@@H](CCCCN)C(=O)N[C@H](C(=O)N[C@@H](CO)C(=O)N1CCC[C@H]1C(=O)N[C@@H](CCC(N)=O)C(=O)NCC(=O)N[C@@H](Cc1ccc(O)cc1)C(N)=O)[C@@H](C)CC)C(C)C)[C@@H](C)O [[Asp-44]hAM(13-52), SFGCRFGTCTVQKLAHQIYQFTDKDKDNVAPDSKISPQGY-CONH2] (H-SFGCRFGTCTVQKLAHQIYQFTDKDKDNVAPDSKISPQGY-NH2; disulfide 4-9)
In vitro
  stability in reaction mixture with human serum: stable

## CC[C@H](C)[C@H](NC(=O)[C@H](CCC(N)=O)NC(=O)[C@H](Cc1c[nH]cn1)NC(=O)[C@H](C)NC(=O)[C@H](CC(C)C)NC(=O)[C@H](CCCCN)NC(=O)[C@H](CCC(N)=O)NC(=O)[C@@H](NC(=O)[C@@H](NC(=O)[C@@H]1CSSC[C@H](NC(=O)CNC(=O)[C@H](Cc2ccccc2)NC(=O)[C@@H](N)CO)C(=O)N[C@@H](CCCNC(=N)N)C(=O)N[C@@H](Cc2ccccc2)C(=O)NCC(=O)N[C@@H]([C@@H](C)O)C(=O)N1)[C@@H](C)O)C(C)C)C(=O)N[C@@H](Cc1ccc(O)cc1)C(=O)N[C@@H](CCC(N)=O)C(=O)N[C@@H](Cc1ccccc1)C(=O)N[C@H](C(=O)N[C@@H](CC(=O)O)C(=O)N[C@@H](CCCCN)C(=O)N[C@@H](CC(=O)O)C(=O)N[C@@H](CCCCN)C(=O)N[C@@H](CC(=O)O)C(=O)N[C@@H](CC(N)=O)C(=O)N[C@H](C(=O)N[C@@H](C)C(=O)N1CCC[C@H]1C(=O)N[C@@H](CCCNC(=N)N)C(=O)N1CCC[C@H]1C(=O)N[C@@H](CCCCN)C(=O)N[C@H](C(=O)N[C@@H](CO)C(=O)N1CCC[C@H]1C(=O)N[C@@H](CCC(N)=O)C(=O)NCC(=O)N[C@@H](Cc1ccc(O)cc1)C(N)=O)[C@@H](C)CC)C(C)C)[C@@H](C)O [[Pro-45]hAM(13-52), SFGCRFGTCTVQKLAHQIYQFTDKDKDNVAPRPKISPQGY-CONH2] (H-SFGCRFGTCTVQKLAHQIYQFTDKDKDNVAPRPKISPQGY-NH2; disulfide 4-9)
In vitro; human, serum
  remaining at 4 h: ~60%
